These results are taken from ChEMBL document CHEMBL1165848, “Discovery of new cholesteryl ester transfer protein inhibitors via ligand-based pharmacophore modeling and QSAR analysis followed by synthetic exploration” (Eur J Med Chem, 2010).

In assay [1] the target is T1, Cholesteryl ester transfer protein (Oryctolagus cuniculus) (UniProt P22687).
T1 sequence (whole entry): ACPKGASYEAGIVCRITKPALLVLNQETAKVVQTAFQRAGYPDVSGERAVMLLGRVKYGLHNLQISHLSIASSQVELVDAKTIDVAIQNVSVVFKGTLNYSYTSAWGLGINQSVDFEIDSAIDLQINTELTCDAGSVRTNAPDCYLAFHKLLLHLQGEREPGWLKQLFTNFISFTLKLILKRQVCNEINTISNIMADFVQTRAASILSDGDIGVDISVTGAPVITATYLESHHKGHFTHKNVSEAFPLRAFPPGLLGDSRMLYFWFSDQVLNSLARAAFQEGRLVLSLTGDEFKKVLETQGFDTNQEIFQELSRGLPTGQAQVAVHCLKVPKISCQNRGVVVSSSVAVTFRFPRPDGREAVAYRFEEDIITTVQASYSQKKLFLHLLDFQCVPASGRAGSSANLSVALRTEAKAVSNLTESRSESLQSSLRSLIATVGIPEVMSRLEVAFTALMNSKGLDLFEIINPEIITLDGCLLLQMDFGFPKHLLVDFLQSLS
Briefly: Inhibition of CETP in rabbit serum at 10 uM after 1 hr by fluorescent cholesteryl esters transfer assay.

For assay [2], the target named is T2, Cholesteryl ester transfer protein (Oryctolagus cuniculus, UniProt P22687).
T2 sequence (P22687 whole entry): T1 sequence (whole entry)
Put plainly: Inhibition of CETP in rabbit serum after 1 hr by fluorescent cholesteryl esters transfer assay. The settings on record: read-out: IC50.

Turning to `CCN(CC)c1ccc(Nc2ccc(CC(=O)c3ccccc3)cc2)cc1`, the inhibition (in general, how much of the control response was suppressed) in assay [1] turned out to be 52.5%. In addition, the IC50 (commonly the concentration needed to halve the response being measured) in assay [2] amounted to 6.5 µM.

Take `COc1ccc(Cl)cc1C(=O)NCCc1ccc(S(=O)(=O)NC(=O)NC2CCCCC2)cc1` [GLYBURIDE]: in assay [1], the inhibition is 35%. The IC50 in assay [2] was 239 µM.

Consider `CCCCCCCCOC(=O)c1ccc2c(c1)Nc1cc3ccccc3cc1N2`, for which the inhibition in assay [1] is 33%. Moreover, the IC50 in assay [2] was 60.3 µM.

As for `C[C@]12CC[C@@H]3c4ccc(O)cc4C[C@@H](CCCCCCCCC[S+]([O-])CCCC(F)(F)C(F)(F)F)[C@H]3[C@@H]1CC[C@@H]2O` (some centres undefined), in assay [1], the inhibition amounted to 5.7%.

In turn, `CCSc1nc2ccc(/N=C\c3ccc(NS(=O)(=O)c4ccccc4)cc3O)cc2s1` returned an inhibition in assay [1] of 0%.

The compound `O=C(Nc1ccc(Br)cc1)N1CCN(C(=O)Nc2ccc(Br)cc2)CC1` registered an inhibition in assay [1] of 0%.

For the compound `O=C(c1ccc(-c2ccccc2)cc1)c1cccc(/N=C/c2cccc(C(F)(F)F)c2)c1`, the inhibition in assay [1] was 33.8%.

`COc1ccc(/C=N/c2ccc(C(=O)c3ccccc3)cc2)cc1` registered an inhibition in assay [1] of 19.9%.

The compound `CCN(CC)CCC(=O)c1ccc(Nc2ccnc3cc(Cl)ccc23)cc1` gave an inhibition in assay [1] of 20.3%.

With `C=CCc1cccc(/C=N/c2ccccc2NS(=O)(=O)c2ccc(C)cc2)c1O`, the inhibition in assay [1] was 22.6%.

As for `OCc1cc(C(O)CNCCCCCCOCCCCc2ccccc2)ccc1O` (centres undefined), the inhibition in assay [1] was 27.4%.

`CC(C)C[C@H]1C(=O)N2CCC[C@H]2[C@]2(O)O[C@](NC(=O)[C@@H]3C=C4c5cccc6[nH]c(Br)c(c56)C[C@H]4N(C)C3)(C(C)C)C(=O)N12` showed an inhibition in assay [1] of 12.3%.

Consider `COc1cc(N)c(Cl)cc1C(=O)NC1CCN(CCCOc2ccc(F)cc2)CC1OC` (centres undefined), for which the inhibition in assay [1] was determined as 10.6%.

In the case of `O=C(Nc1ccc(Cl)c(Cl)c1)OCC(Cl)COc1ccc(Cl)cc1` (centres undefined), the inhibition in assay [1] was determined as 0%.

In turn, `C/C=C/c1ccc2oc(-c3ccc(OC4OC(C)C(O)C(O)C4O)cc3)c(C)c2c1` (centres undefined) registered an inhibition in assay [1] of 9%.

Compound `O=C(c1ccccc1)c1cccc(/N=C/c2ccc(C(F)(F)F)cc2)c1` yielded an inhibition in assay [1] of 26.3%.

In assay [1], `CCCNCC(O)COc1ccccc1C(=O)CCc1ccccc1` (centres undefined) gave an inhibition of 0%.

Turning to `O=S(=O)(Nc1ccc(CSc2ccc(Cl)cc2)cc1)c1ccccc1`, the inhibition in assay [1] was 82.5%. Also, in assay [2], the concentration for half-maximal inhibition (IC50) was 1.9 µM.

With `O=C(c1ccccc1)c1ccccc1NCC(O)COc1ccc(Cl)cc1` (centres undefined), the inhibition in assay [1] amounted to 0%.

The compound `COc1ccc(/C=N/c2cccc(C(=O)c3ccc(OC)cc3)c2)cc1` registered an inhibition in assay [1] of 14.8%.
